Source: publication PMC7031696 (Cell chemical biology, 2019)

Tested on: 3D7-MR4 trophozoite parasite-infected RBCs
Experiment: Metabolomic profiling (hydrophilic metabolite changes, UHPLC-MS)
Assay type: cell-based, Plasmodium falciparum

## Ferroquine [reference compound]
10 × IC50^72h, 2.5 hr, trophozoites
  changes within the set of metabolites detected (low fold change group): did not induce major changes
Metabolite 1_3-Bisphosphoglyceric acid, log2 fold change
  Log2(fold changes) 1_3-Bisphosphoglyceric acid: 0.0000
Metabolite 2-Hydroxy-2-methylbutanedioic acid, log2 fold change
  Log2(fold changes) 2-Hydroxy-2-methylbutanedioic acid: -0.0247
Metabolite 2-Isopropylmalic acid, log2 fold change
  Log2(fold changes) 2-Isopropylmalic acid: 0.0000
Metabolite 2-dehydro-D-gluconate, log2 fold change
  Log2(fold changes) 2-dehydro-D-gluconate: -0.3147
Metabolite 2-oxo-4-methylthiobutanoate, log2 fold change
  Log2(fold changes) 2-oxo-4-methylthiobutanoate: 0.0000
Metabolite 2_3-Diphosphoglyceric acid, log2 fold change
  Log2(fold changes) 2_3-Diphosphoglyceric acid: -0.0833
Metabolite 3-phosphoglycerate, log2 fold change
  Log2(fold changes) 3-phosphoglycerate: 0.2090
Metabolite 3-phosphoserine, log2 fold change
  Log2(fold changes) 3-phosphoserine: 0.0000
Metabolite 4-Pyridoxic acid, log2 fold change
  Log2(fold changes) 4-Pyridoxic acid: 0.0751
Metabolite 4-aminobutyrate, log2 fold change
  Log2(fold changes) 4-aminobutyrate: 0.0759
Metabolite 4-phosphopantetheine, log2 fold change
  Log2(fold changes) 4-phosphopantetheine: 0.0000
Metabolite 4-phosphopantothenate, log2 fold change
  Log2(fold changes) 4-phosphopantothenate: 0.0213
Metabolite 5-aminopentanoic acid, log2 fold change
  Log2(fold changes) 5-aminopentanoic acid: 0.0000
Metabolite 5-methyl-THF, log2 fold change
  Log2(fold changes) 5-methyl-THF: 0.0000
Metabolite 5-phosphoribosyl-1-pyrophosphate, log2 fold change
  Log2(fold changes) 5-phosphoribosyl-1-pyrophosphate: 0.0000
Metabolite 6-phospho-D-gluconate, log2 fold change
  Log2(fold changes) 6-phospho-D-gluconate: 0.0000
Metabolite ADP-D-glucose, log2 fold change
  Log2(fold changes) ADP-D-glucose: 0.0625
Metabolite Acetyl-glycine, log2 fold change
  Log2(fold changes) Acetyl-glycine: 0.0000
Metabolite Acetyllysine, log2 fold change
  Log2(fold changes) Acetyllysine: 0.2432
Metabolite Aminoadipic acid, log2 fold change
  Log2(fold changes) Aminoadipic acid: 0.0000
Metabolite CDP, log2 fold change
  Log2(fold changes) CDP: -0.2924
Metabolite CDP-choline, log2 fold change
  Log2(fold changes) CDP-choline: 0.0000
Metabolite CDP-ethanolamine, log2 fold change
  Log2(fold changes) CDP-ethanolamine: 0.1904
Metabolite CMP
  Log2(fold change) of CMP: -0.0276
Metabolite CTP
  Log2(fold change) of CTP: 0.0362
Metabolite Citraconic acid, log2 fold change
  Log2(fold changes) Citraconic acid: 0.0302
Metabolite D-glucarate
  Log2(fold change) of D-glucarate: 0.4691
Metabolite D-gluconate
  Log2(fold change) of D-gluconate: 0.0000
Metabolite D-glucosamine-1/6-phosphate
  Log2(fold change) of D-glucosamine-1/6-phosphate: 0.0000
Metabolite D-sedoheptulose-1/7-phosphate
  Log2(fold change) of D-sedoheptulose-1/7-phosphate: -0.0036
Metabolite DL-Pipecolic Acid
  Log2(fold change) of DL-Pipecolic Acid: -0.1035
Metabolite DLH
  Log2(fold change) of DLH: 0.0094
Metabolite DLS
  Log2(fold change) of DLS: 0.0686
Metabolite Decanoyl-CoA
  Log2(fold change) of Decanoyl-CoA: 0.0000
Metabolite EV
  Log2(fold change) of EV: 0.0000
Metabolite FAD
  Log2(fold change) of FAD: 0.0236
Metabolite FMN
  Log2(fold change) of FMN: 0.1126
Metabolite G3P/DHAP
  Log2(fold change) of G3P/DHAP: 0.0000
Metabolite GDP
  Log2(fold change) of GDP: -0.2435
Metabolite GMP
  Log2(fold change) GMP: -0.0369
Metabolite GTP
  Log2(fold change) GTP: 0.0612
Metabolite HVDD
  Log2(fold change) HVDD: 0.0000
Metabolite Hexose
  Log2(fold change) Hexose: 0.9215
Metabolite Hydroxyisocaproic acid
  Log2(fold change) Hydroxyisocaproic acid: 0.0000
Metabolite IDP
  Log2(fold change) IDP: 0.0000
Metabolite IMP
  Log2(fold change) IMP: -0.0158
Metabolite Inositol
  Log2(fold change) Inositol: 0.0000
Metabolite Isopentyl-PP
  Log2(fold change) Isopentyl-PP: 0.0768
Metabolite L-arginino-succinate
  Log2(fold change) L-arginino-succinate: 0.0000
Metabolite LD
  Log2(fold change) LD: 0.1184
Metabolite Myristoyl/tetradecanoyl-CoA
  Log2(fold change) Myristoyl/tetradecanoyl-CoA: 0.0000
Metabolite N-Acetyl-L-alanine
  Log2(fold change) N-Acetyl-L-alanine: -0.1094
Metabolite N-acetyl-L-ornithine
  Log2(fold change) N-acetyl-L-ornithine: 0.3046
Metabolite N-acetyl-glucosamine-1/6-phosphate
  Log2(fold change) N-acetyl-glucosamine-1/6-phosphate: -0.0561
Metabolite N-acetyl-glutamate
  Log2(fold change) N-acetyl-glutamate: 0.1101
Metabolite N-acetyl-glutamine
  Log2(fold change) N-acetyl-glutamine: 0.0004
Metabolite N-carbamoyl-L-aspartate
  Log2(fold change) N-carbamoyl-L-aspartate: 0.0860
Metabolite NAD+
  Log2(fold change) NAD+: 0.0993
Metabolite NADH
  Log2(fold change) NADH: 0.0000
Metabolite NADP+
  Log2(fold change) NADP+: -0.0805
Metabolite NADPH
  Log2(fold change) NADPH: 0.9289
Metabolite O-acetyl-L-serine
  Log2(fold change) O-acetyl-L-serine: 0.0000
Metabolite Octoluse 8/1P
  Log2(fold change) Octoluse 8/1P: 0.1026
Metabolite Octoluse Bisphosphate
  Log2(fold change) Octoluse Bisphosphate: 0.0231
Metabolite PD
  Log2(fold change) PD: 0.1011
Metabolite PE
  Log2(fold change) PE: 0.0655
Metabolite PEE
  Log2(fold change) PEE: 0.0431
Metabolite PEEK
  Log2(fold change) PEEK: 0.3448
Metabolite PVNF
  Log2(fold change) PVNF: 0.0000
Metabolite Pyroglutamic acid
  Log2(fold change) Pyroglutamic acid: 0.1702
Metabolite Pyrophosphate
  Log2(fold change) Pyrophosphate: 0.0000
Metabolite Ribose-5-phosphate
  Log2(fold change) Ribose-5-phosphate: 0.0000
Metabolite S-adenosyl-L-homocysteine
  Log2(fold change) S-adenosyl-L-homocysteine: 0.0736
Metabolite S-adenosyl-L-methioninamine
  Log2(fold change) S-adenosyl-L-methioninamine: 0.0000
Metabolite S-adenosyl-L-methionine
  Log2(fold change) S-adenosyl-L-methionine: 0.0000
Metabolite S-methyl-5'-thioadenosine
  Log2(fold change) S-methyl-5'-thioadenosine: 0.0000
Metabolite SD
  Log2(fold change) SD: 0.1281
Metabolite SDL
  Log2(fold change) SDL: 0.2089
Metabolite SID
  Log2(fold change) SID: 0.0000
Metabolite Sedoheptulose bisphosphate
  Log2(fold change) Sedoheptulose bisphosphate: 0.0573
Metabolite Thiamine pyrophosphate
  Log2(fold change) Thiamine pyrophosphate: 0.0000
Metabolite UDP-D-glucose, log2 fold change
  Log2(fold changes) UDP-D-glucose: 0.0465
Metabolite UDP-D-glucuronate, log2 fold change
  Log2(fold changes) UDP-D-glucuronate: 0.0272
Metabolite UDP-N-acetyl-glucosamine, log2 fold change
  Log2(fold changes) UDP-N-acetyl-glucosamine: 0.0319
Metabolite UDP, log2 fold change
  Log2(fold changes) UDP: -0.2525
Metabolite UMP, log2 fold change
  Log2(fold changes) UMP: -0.0522
Metabolite UTP, log2 fold change
  Log2(fold changes) UTP: 0.1015
Metabolite VD, log2 fold change
  Log2(fold changes) VD: 0.1916
Metabolite Xanthurenic acid, log2 fold change
  Log2(fold changes) Xanthurenic acid: 0.0000
Metabolite a-ketoglutarate, log2 fold change
  Log2(fold changes) a-ketoglutarate: -0.2164
Metabolite acetyl-CoA, log2 fold change
  Log2(fold changes) acetyl-CoA: 0.0673
Metabolite acetyl-aspartate, log2 fold change
  Log2(fold changes) acetyl-aspartate: -0.0096
Metabolite acetylphosphate, log2 fold change
  Log2(fold changes) acetylphosphate: 0.0000
Metabolite aconitate, log2 fold change
  Log2(fold changes) aconitate: 0.0000
Metabolite adenine, log2 fold change
  Log2(fold changes) adenine: 0.0000
Metabolite adenosine 5'-phosphosulfate, log2 fold change
  Log2(fold changes) adenosine 5'-phosphosulfate: -0.1961
